Measured values published in ChEMBL document CHEMBL1201862, “PubChem BioAssay data set” (2004).
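96-well plates; 48 h exposure; 5 concentrations. Endpoints by linear interpolation between flanking doses. Not reached: highest tested concentration assigned. GI50: concentration for 50% inhibition of growth.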 Activity calls are given as the source filed them. No stated cut-off is given here; in the data, active = GI50 up to about 1.1 µM and inactive = higher.

Legend:
Assay in all cases: growth of human tumour cells (NCI), 48 h
786-0 = test system: 786-0
A498 = test system: A498
ACHN = test system: ACHN
BT-549 = test system: BT-549
CAKI-1 = test system: CAKI-1
COLO 205 = test system: COLO 205
DU-145 = test system: DU-145
EKVX = test system: EKVX
HCT-116 = test system: HCT-116
HCT-15 = test system: HCT-15
HOP-62 = test system: HOP-62
HOP-92 = test system: HOP-92
HT-29 = test system: HT-29
KM12 = test system: KM12
LOX IMVI = test system: LOX IMVI
MDA-MB-231 = test system: MDA-MB-231
MDA-MB-435 = test system: MDA-MB-435
MDA-N = test system: MDA-N
MOLT-4 = test system: MOLT-4
Malme-3M = test system: Malme-3M
NCI-H226 = test system: NCI-H226
NCI-H23 = test system: NCI-H23
NCI-H522 = test system: NCI-H522
NCI/ADR-RES = test system: NCI/ADR-RES
OVCAR-3 = test system: OVCAR-3
OVCAR-4 = test system: OVCAR-4
OVCAR-5 = test system: OVCAR-5
OVCAR-8 = test system: OVCAR-8
RPMI-8226 = test system: RPMI-8226
RXF 393 = test system: RXF 393
SF-268 = test system: SF-268
SF-295 = test system: SF-295
SF-539 = test system: SF-539
SK-MEL-5 = test system: SK-MEL-5
SK-OV-3 = test system: SK-OV-3
SN12C = test system: SN12C
SNB-75 = test system: SNB-75
SW-620 = test system: SW-620
T47D = test system: T47D
TK-10 = test system: TK-10
U-251 = test system: U-251
UACC-257 = test system: UACC-257
A549 = test system: A549
CCRF-CEM = test system: CCRF-CEM
HCC 2998 = test system: HCC 2998
HL-60 = test system: HL-60
Hs-578T = test system: Hs-578T
IGROV-1 = test system: IGROV-1
K562 = test system: K562
M14 = test system: M14
MCF7 = test system: MCF7
NCI-H460 = test system: NCI-H460
PC-3 = test system: PC-3
SK-MEL-28 = test system: SK-MEL-28
SNB-19 = test system: SNB-19
SR = test system: SR
UACC-62 = test system: UACC-62
UO-31 = test system: UO-31

Question: With `O=C(Nc1nc2ccc([N+](=O)[O-])cc2s1)c1cc([N+](=O)[O-])ccc1Cl` as the compound, how does the GI50 (786-0) read?
Answer: 2.75 µM (inactive)

Question: What about the GI50 (A498) of the same compound?
Answer: 2.21 µM (inactive)

Question: And the GI50 (ACHN)?
Answer: 3.2 µM (inactive)

Question: And the GI50 (BT-549)?
Answer: 2.24 µM (inactive)

Question: What about the GI50 (CAKI-1) of the same compound?
Answer: 4.51 µM (inactive)

Question: What about the GI50 (COLO 205) of the same compound?
Answer: 1.68 µM (inactive)

Question: And the GI50 (DU-145)?
Answer: 3.75 µM (inactive)

Question: And the GI50 (EKVX)?
Answer: 2.81 µM (inactive)

Question: What about the GI50 (HCT-116) of the same compound?
Answer: 1.71 µM (inactive)

Question: And the GI50 (HCT-15)?
Answer: 1.93 µM

Question: What about the GI50 (HOP-62) of the same compound?
Answer: 3 µM (inactive)

Question: What about the GI50 (HOP-92) of the same compound?
Answer: 0.675 µM (active)

Question: What about the GI50 (HT-29) of the same compound?
Answer: 2.48 µM (inactive)

Question: What about the GI50 (KM12) of the same compound?
Answer: 3.4 µM (inactive)

Question: And the GI50 (LOX IMVI)?
Answer: 2.05 µM (inactive)

Question: And the GI50 (MDA-MB-231)?
Answer: 2.55 µM (inactive)

Question: What about the GI50 (MDA-MB-435) of the same compound?
Answer: 4.04 µM (inactive)

Question: And the GI50 (MDA-N)?
Answer: 1.48 µM (inactive)

Question: What about the GI50 (MOLT-4) of the same compound?
Answer: 3.21 µM (inactive)

Question: And the GI50 (Malme-3M)?
Answer: 3.01 µM (inactive)

Question: What about the GI50 (NCI-H226) of the same compound?
Answer: 1.31 µM (inactive)

Question: And the GI50 (NCI-H23)?
Answer: 2.3 µM (inactive)

Question: What about the GI50 (NCI-H522) of the same compound?
Answer: 1.68 µM (inactive)

Question: What about the GI50 (NCI/ADR-RES) of the same compound?
Answer: 1.91 µM (inactive)

Question: And the GI50 (OVCAR-3)?
Answer: 1.59 µM (inactive)

Question: What about the GI50 (OVCAR-4) of the same compound?
Answer: 5.27 µM (inactive)

Question: And the GI50 (OVCAR-5)?
Answer: 4.26 µM (inactive)

Question: And the GI50 (OVCAR-8)?
Answer: 2.85 µM (inactive)

Question: What about the GI50 (RPMI-8226) of the same compound?
Answer: 0.989 µM (active)

Question: What about the GI50 (RXF 393) of the same compound?
Answer: 3.69 µM (inactive)

Question: What about the GI50 (SF-268) of the same compound?
Answer: 3.41 µM (inactive)

Question: What about the GI50 (SF-295) of the same compound?
Answer: 3.4 µM (inactive)

Question: What about the GI50 (SF-539) of the same compound?
Answer: 2.68 µM (inactive)

Question: What about the GI50 (SK-MEL-5) of the same compound?
Answer: 1.41 µM (inactive)

Question: What about the GI50 (SK-OV-3) of the same compound?
Answer: 2.94 µM (inactive)

Question: What about the GI50 (SN12C) of the same compound?
Answer: 1.52 µM (inactive)

Question: And the GI50 (SNB-75)?
Answer: 2.22 µM (inactive)

Question: What about the GI50 (SW-620) of the same compound?
Answer: 2.29 µM (inactive)

Question: And the GI50 (T47D)?
Answer: 3.57 µM (inactive)

Question: What about the GI50 (TK-10) of the same compound?
Answer: 3.8 µM (inactive)

Question: And the GI50 (U-251)?
Answer: 2.95 µM (inactive)

Question: What about the GI50 (UACC-257) of the same compound?
Answer: 3.23 µM (inactive)

Question: For `COCCOCCOCCC(=O)NC1CC2CCC1(C)C2(C)C` (configuration not stated), which GI50 (786-0) is on record?
Answer: > 100 µM (inactive)

Question: What about the GI50 (A498) of the same compound?
Answer: > 100 µM (inactive)

Question: What about the GI50 (A549) of the same compound?
Answer: > 100 µM (inactive)

Question: And the GI50 (ACHN)?
Answer: > 100 µM (inactive)

Question: And the GI50 (BT-549)?
Answer: > 100 µM (inactive)

Question: And the GI50 (CAKI-1)?
Answer: > 100 µM (inactive)

Question: And the GI50 (CCRF-CEM)?
Answer: > 100 µM (inactive)

Question: What about the GI50 (COLO 205) of the same compound?
Answer: > 100 µM (inactive)

Question: What about the GI50 (DU-145) of the same compound?
Answer: > 100 µM (inactive)

Question: And the GI50 (EKVX)?
Answer: > 100 µM (inactive)

Question: What about the GI50 (HCC 2998) of the same compound?
Answer: > 100 µM (inactive)

Question: What about the GI50 (HCT-116) of the same compound?
Answer: > 100 µM (inactive)

Question: And the GI50 (HCT-15)?
Answer: > 100 µM

Question: And the GI50 (HL-60)?
Answer: > 100 µM (inactive)

Question: What about the GI50 (HOP-62) of the same compound?
Answer: > 100 µM (inactive)

Question: What about the GI50 (HT-29) of the same compound?
Answer: > 100 µM (inactive)

Question: And the GI50 (Hs-578T)?
Answer: > 100 µM (inactive)

Question: And the GI50 (IGROV-1)?
Answer: > 100 µM (inactive)

Question: And the GI50 (K562)?
Answer: > 100 µM (inactive)

Question: And the GI50 (KM12)?
Answer: > 100 µM (inactive)

Question: What about the GI50 (LOX IMVI) of the same compound?
Answer: > 100 µM (inactive)

Question: And the GI50 (M14)?
Answer: > 100 µM (inactive)

Question: And the GI50 (MCF7)?
Answer: > 100 µM (inactive)

Question: What about the GI50 (MDA-MB-231) of the same compound?
Answer: > 100 µM (inactive)

Question: And the GI50 (MDA-MB-435)?
Answer: > 100 µM (inactive)

Question: What about the GI50 (MDA-N) of the same compound?
Answer: > 100 µM (inactive)

Question: What about the GI50 (MOLT-4) of the same compound?
Answer: > 100 µM (inactive)

Question: And the GI50 (Malme-3M)?
Answer: > 100 µM (inactive)

Question: What about the GI50 (NCI-H226) of the same compound?
Answer: > 100 µM (inactive)

Question: What about the GI50 (NCI-H23) of the same compound?
Answer: > 100 µM (inactive)

Question: What about the GI50 (NCI-H460) of the same compound?
Answer: > 100 µM (inactive)

Question: And the GI50 (NCI/ADR-RES)?
Answer: > 100 µM (inactive)

Question: What about the GI50 (OVCAR-3) of the same compound?
Answer: > 100 µM (inactive)

Question: And the GI50 (OVCAR-4)?
Answer: > 100 µM (inactive)

Question: And the GI50 (OVCAR-5)?
Answer: > 100 µM (inactive)

Question: What about the GI50 (OVCAR-8) of the same compound?
Answer: > 100 µM (inactive)

Question: What about the GI50 (PC-3) of the same compound?
Answer: > 100 µM (inactive)

Question: And the GI50 (RPMI-8226)?
Answer: > 100 µM (inactive)

Question: What about the GI50 (RXF 393) of the same compound?
Answer: > 100 µM (inactive)

Question: What about the GI50 (SF-268) of the same compound?
Answer: > 100 µM (inactive)

Question: What about the GI50 (SF-295) of the same compound?
Answer: > 100 µM (inactive)

Question: And the GI50 (SF-539)?
Answer: > 100 µM (inactive)

Question: What about the GI50 (SK-MEL-28) of the same compound?
Answer: > 100 µM (inactive)

Question: And the GI50 (SK-MEL-5)?
Answer: > 100 µM (inactive)

Question: What about the GI50 (SK-OV-3) of the same compound?
Answer: > 100 µM (inactive)

Question: And the GI50 (SN12C)?
Answer: > 100 µM (inactive)

Question: What about the GI50 (SNB-19) of the same compound?
Answer: > 100 µM (inactive)

Question: What about the GI50 (SNB-75) of the same compound?
Answer: > 100 µM (inactive)

Question: What about the GI50 (SR) of the same compound?
Answer: > 100 µM (inactive)

Question: What about the GI50 (SW-620) of the same compound?
Answer: > 100 µM (inactive)

Question: What about the GI50 (TK-10) of the same compound?
Answer: > 100 µM (inactive)

Question: What about the GI50 (U-251) of the same compound?
Answer: > 100 µM (inactive)

Question: And the GI50 (UACC-257)?
Answer: > 100 µM (inactive)

Question: What about the GI50 (UACC-62) of the same compound?
Answer: > 100 µM (inactive)

Question: And the GI50 (UO-31)?
Answer: > 100 µM (inactive)
